We go through 29 compounds from the RepoRT retention time repository.

The nature of the series: Waters ACQUITY UPLC BEH C18, 100 × 2.1 mm, 1.7 µm, 40 °C, 0.3 to 0.4 mL/min, estimated dead time 0.63 min; A: water + 0.1% formic acid; B: methanol + 0.1% formic acid; gradient (min/%B) 0/0.5 0.1/0.5 10/80 10.1/99.5 12/99.5. The note with it: stereoisomer not certain.

For `COC(=O)C1=C2Nc3ccccc3C23CCN2C4OC56C7CC4(CN5c4c(OC)cccc4C64CCN5CCC6OCCC6(C7)C54)C4OCCC4(C1)C23` (centres undefined), the LC retention time was 5.79 min.

For `COc1ccc2cc1Oc1ccc(cc1)CC1c3cc(c(OC)cc3CCN1C)Oc1c(OC)c(OC)c(OC)c3c1C(C2)N(C)CC3` (centres undefined), the LC retention time was 4.41 min.

For `COc1cc(-c2cc(=O)c3c(O)c(C4OC(CO)C(O)C(O)C4O)c(OC)cc3o2)ccc1O` (centres undefined), the LC retention time is 4.21 min.

With `COC(=O)C1CC23CCC[N+]4([O-])CCC5(c6ccccc6NC15CC2)C34` (centres undefined), the LC retention time is 4.18 min.

As to `COc1cc(O)c2c(=O)c(OC3OC(COC4OC(C)C(O)C(OC5OC(C)C(O)C(O)C5O)C4O)C(O)C(O)C3O)c(-c3ccc(O)c(O)c3)oc2c1` (centres undefined), the LC retention time was 4.79 min.

For `c1ccc2c3ccn4cc5c(cc4c-3nc2c1)CCCC5`, the LC retention time is 5.23 min.

As to `CC1(C)CC2C3=CCC4C5(C)CCC(OC6OC(C(=O)O)C(O)C(O)C6OC6OC(CO)C(O)C(O)C6OC6OC(CO)C(O)C(O)C6O)C(C)(CO)C5CCC4(C)C3(C)CCC2(C)C(O)C1O` (centres undefined), the LC retention time is 5.81 min.

With `COc1ccc(-c2oc3c(CC=C(C)C)c(OC4OC(CO)C(O)C(O)C4O)cc(O)c3c(=O)c2OC2OC(C)C(O)C(O)C2O)cc1` (centres undefined), the LC retention time is 5.43 min.

As for `CCCCCC(=O)OC1C(OC2(CO)OC(CO)C(OC(C)=O)C2O)OC(CO)C(OC(=O)CCCC)C1OC(=O)CCCC` (centres undefined), the LC retention time was 9.02 min.

In the case of `O=C1CC(c2ccccc2)Oc2ccc(O)cc21` (centres undefined), the LC retention time is 7.17 min.

Turning to `Nc1nc2c(ncn2C2OC(CO)C(O)C2O)c(=O)[nH]1` (centres undefined), the LC retention time was 1.93 min.

For the compound `O=c1ccc2cc(OC3OC(CO)C(O)C(O)C3O)c(O)cc2o1` (centres undefined), the LC retention time is 2.87 min.

Consider `CCCCCC=CCC=CCC=CCC=CCCCC(=O)O`, for which the LC retention time was 7.39 min.

`CC(C)=CCc1c(O)cc(O)c2c1OC(c1ccc(O)cc1)CC2=O` (centres undefined): the LC retention time is 8.76 min.

In the case of `O=C1c2c(O)cc(O)cc2OC(c2ccc(O)c(O)c2)C1O` (centres undefined), the LC retention time is 4.27 min.

On to `C=CCC(=NOS(=O)(=O)O)SC1OC(CO)C(O)C(O)C1O` (centres undefined), for which the LC retention time was 1.77 min.

Regarding `CC1(C)CCC2(C(=O)O)CCC3(C)C(=CCC4C5(C)CC(O)C(O)C(C)(C)C5CCC43C)C2C1` (centres undefined), the LC retention time is 9.77 min.

As to `COc1cc(C=CC(=O)OC2C(OC3C(Oc4ccc(-c5cc(=O)c6c(O)cc(O)cc6o5)cc4)OC(C(=O)O)C(O)C3O)OC(C(=O)O)C(O)C2O)ccc1O` (centres undefined), the LC retention time is 4.76 min.

Regarding `C=CC12CN(C)C3C4COC(CC41)C1(C(=O)N(OC)c4ccccc41)C32` (centres undefined), the LC retention time was 4.05 min.

As to `COc1cc(-c2oc3cc(O)cc(O)c3c(=O)c2OC2OC(CO)C(O)C(O)C2OC2OC(C)C(O)C(O)C2O)ccc1O` (centres undefined), the LC retention time was 3.72 min.

Turning to `CCOC1OC2c3cc4c(cc3CCN(C)C2c2ccc3c(c21)OCO3)OCO4` (centres undefined), the LC retention time was 5.15 min.

Take `O=C(O)CC(=O)OCC1OC(Oc2c(-c3ccc(O)c(O)c3)oc3cc(O)cc(O)c3c2=O)C(O)C(O)C1O` (centres undefined): the LC retention time was 4.22 min.

For the compound `C=CC1C(OC2OC(CO)C(O)C(O)C2O)OC=C(C(=O)O)C1CC1NCCc2c1[nH]c1ccccc21` (centres undefined), the LC retention time is 3.94 min.

As to `O=c1[nH]c(=O)c2ncn(C3OC(CO)C(O)C3O)c2[nH]1` (centres undefined), the LC retention time is 2.07 min.

Take `CCC(C)C(NCC1(O)OC(CO)C(O)C1O)C(=O)O` (centres undefined): the LC retention time is 1.98 min.

Take `CC(C)=CCc1cc(C2CC(=O)c3c(O)cc(O)cc3O2)cc(O)c1O` (centres undefined): the LC retention time is 7.75 min.

Take `O=c1cc(-c2ccc(O)cc2)oc2cc(OC3OC(CO)C(O)C(O)C3OC3OCC(O)(CO)C3O)cc(O)c12` (centres undefined): the LC retention time is 4.71 min.

Turning to `CC(C)CC(NC(=O)CCC(N)C(=O)O)C(=O)O` (centres undefined), the LC retention time was 2.54 min.

For the compound `O=c1cc(-c2ccc(O)c(O)c2)oc2cc(O)c(C3OC(CO)C(O)C(O)C3O)c(O)c12` (centres undefined), the LC retention time is 3.59 min.
